Results: patent US20260125382A1, “COMPOUNDS FOR INHIBITING OR DEGRADING CDK2 AND/OR CDK9 AND MEDICINAL USE THEREOF” (KOREA RESEARCH INSTITUTE OF CHEMICAL TECHNOLOGY, priority 2022, published 2026)

Columns and labels:
[1] = target: T1, CDK2 (Homo sapiens, UniProt P24941); assay: CDK protein degradation activity (Western blotting), CDK2; type: cell-based; conditions: MDA-MB-231 cells, 16 hours, Western blot
T1 construct: endogenous in cells; host or cells: MDA-MB-231
How it was run: (§1)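 Protein levels were read by Western blot densitometry, tubulin serving as loading reference. Beforehand, MDA-MB-231 cells had been exposed for 16 hours to 100 nM, 1 μM or 10 μM compound, DMSO as control.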

[2] = target: T2, CDK9 (Homo sapiens, UniProt P50750); assay: CDK protein degradation activity (Western blotting), CDK9; type: cell-based; conditions: MDA-MB-231 cells, 16 hours, Western blot
T2 construct: endogenous in cells; host or cells: MDA-MB-231
How it was run: as §1

T2 sequence (P50750 whole entry): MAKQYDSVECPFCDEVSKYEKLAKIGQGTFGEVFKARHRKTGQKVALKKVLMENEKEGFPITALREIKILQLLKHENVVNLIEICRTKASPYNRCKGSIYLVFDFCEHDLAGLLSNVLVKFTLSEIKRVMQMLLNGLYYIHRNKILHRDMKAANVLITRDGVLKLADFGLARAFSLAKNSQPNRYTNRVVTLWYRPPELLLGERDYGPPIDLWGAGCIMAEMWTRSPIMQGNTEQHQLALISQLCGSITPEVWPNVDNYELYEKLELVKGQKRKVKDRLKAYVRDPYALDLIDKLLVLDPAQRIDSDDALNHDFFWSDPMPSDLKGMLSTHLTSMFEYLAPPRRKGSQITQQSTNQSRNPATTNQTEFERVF

| SMILES | Enzyme degradation CDK2 (% remaining) @ 0.1 μM [1] | Enzyme degradation CDK2 (% remaining) @ 1 μM [1] | Enzyme degradation CDK2 (% remaining) @ 10 μM [1] | Enzyme degradation CDK9 (% remaining) @ 0.1 μM [2] | Enzyme degradation CDK9 (% remaining) @ 1 μM [2] | Enzyme degradation CDK9 (% remaining) @ 10 μM [2] |
| --- | --- | --- | --- | --- | --- | --- |
| O=C1CCC(N2C(=O)c3cccc(NCC(=O)N4CC(N5CCC6(CC5)CC(N5CCN(c7ccc(Nc8ncnc9c8ncn9[C@H]8C[C@@H](NC(=O)Cc9ccccc9)C8)cc7)CC5)C6)C4)c3C2=O)C(=O)N1 (stereo partly drawn) [Compound 277, N-((1s,3s)-3-(6-((4-(4-(7-(1-((2-(2,6-dioxopiperidin-3-yl)-1,3-dioxoisoindolin-4-yl)glycyl)azetidin-3-yl)-7-azaspiro[3.5]nonan-2-yl)piperazin-1-yl)phenyl)amino)-9H-purin-9-yl)cyclobutyl)-2-phenylacetamide] | 30/30/30% | 30/30/30% | 30/30/30% | 0/0/0% | 0/0/0% | 0/0/0% |
| O=C1CC[C@H](N2C(=O)c3ccc(NCC(=O)N4CC(N5CCC6(CC5)CC(N5CCN(c7ccc(Nc8ncnc9c8ncn9C8CC(NC(=O)Cc9ccccc9)C8)cc7)CC5)C6)C4)cc3C2=O)C(=O)N1 (stereo partly drawn) [Compound 278, N-((1s,3s)-3-(6-((4-(4-(7-(1-((2-(2,6-dioxopiperidin-3-yl)-1,3-dioxoisoindolin-5-yl)glycyl)azetidin-3-yl)-7-azaspiro[3.5]nonan-2-yl)piperazin-1-yl)phenyl)amino)-9H-purin-9-yl)cyclobutyl)-2-phenylacetamide] | 50/50/50% | 50/50/50% | 50/50/50% | 10% | 0% | 0% |
| O=C1CC[C@H](N2C(=O)c3cccc(N4CC(CN5CCC6(CC5)CC(N5CCN(c7ccc(Nc8ncnc9c8ncn9[C@H]8C[C@@H](NC(=O)Cc9ccccc9)C8)cc7)CC5)C6)C4)c3C2=O)C(=O)N1 [Compound 279, N-((1s,3s)-3-(6-((4-(4-(7-((1-(2-(2,6-dioxopiperidin-3-yl)-1,3-dioxoisoindolin-4-yl)azetidin-3-yl)methyl)-7-azaspiro[3.5]nonan-2-yl)piperazin-1-yl)phenyl)amino)-9H-purin-9-yl)cyclobutyl)-2-phenylacetamide] | 50% | 40% | 40% | 40% | 10% | 10% |
| COc1ccc(C(=O)N2CC(CN3CCC4(CC3)CC(N3CCN(c5ccc(Nc6ncnc7c6ncn7[C@H]6C[C@@H](NC(=O)Cc7ccccc7)C6)cc5)CC3)C4)C2)cc1N1CCC(=O)NC1=O [Compound 280, N-((1s,3s)-3-(6-((4-(4-(7-((1-(3-(2,4-dioxotetrahydropyrimidin-1(2H)-yl)-4-methoxybenzoyl)azetidin-3-yl)methyl)-7-azaspiro[3.5]nonan-2-yl)piperazin-1-yl)phenyl)amino)-9H-purin-9-yl)cyclobutyl)-2-phenylacetamide] | 50% | 30% | 30% | 50% | 10% | 10% |
| O=C1CC[C@@H](c2ccc(OCC(=O)N3CCC(CN4CCC(c5ccc(Nc6ncnc7c6ncn7C6CC(NC(=O)Cc7ccccc7)C6)cc5)CC4)CC3)cc2)C(=O)N1 (stereo partly drawn) [Compound 281, N-((1s,3s)-3-(6-((4-(1-((1-(2-(4-(2,6-dioxopiperidin-3-yl)phenoxy)acetyl)piperidin-4-yl)methyl)piperidin-4-yl)phenyl)amino)-9H-purin-9-yl)cyclobutyl)-2-phenylacetamide] | 30% | 50% | 50% | 0/0/0% | 0/0/0% | 0/0/0% |
| O=C1CC[C@@H](c2cccc(OCC(=O)N3CCC(CN4CCC(c5ccc(Nc6ncnc7c6ncn7C6CC(NC(=O)Cc7ccccc7)C6)cc5)CC4)CC3)c2)C(=O)N1 (stereo partly drawn) [Compound 282, N-((1s,3s)-3-(6-((4-(1-((1-(2-(3-(2,6-dioxopiperidin-3-yl)phenoxy)acetyl)piperidin-4-yl)methyl)piperidin-4-yl)phenyl)amino)-9H-purin-9-yl)cyclobutyl)-2-phenylacetamide] | 10% | 20% | 20% | 0/0/0% | 0/0/0% | 0/0/0% |
| O=C1CC[C@@H](c2ccc(OCC(=O)N3CCC4(CC3)CC(N3CCC(c5ccc(Nc6ncnc7c6ncn7C6CC(NC(=O)Cc7ccccc7)C6)cc5)CC3)C4)cc2)C(=O)N1 (stereo partly drawn) [Compound 284, N-((1s,3s)-3-(6-((4-(1-(7-(2-(4-(2,6-dioxopiperidin-3-yl)phenoxy)acetyl)-7-azaspiro[3.5]nonan-2-yl)piperidin-4-yl)phenyl)amino)-9H-purin-9-yl)cyclobutyl)-2-phenylacetamide] | 40% | 50% | 60% | 0/0/0% | 0/0/0% | 0/0/0% |
| O=C1CC[C@@H](c2cccc(OCC(=O)N3CCC4(CC3)CC(N3CCC(c5ccc(Nc6ncnc7c6ncn7C6CC(NC(=O)Cc7ccccc7)C6)cc5)CC3)C4)c2)C(=O)N1 (stereo partly drawn) [Compound 285, N-((1s,3s)-3-(6-((4-(1-(7-(2-(3-(2,6-dioxopiperidin-3-yl)phenoxy)acetyl)-7-azaspiro[3.5]nonan-2-yl)piperidin-4-yl)phenyl)amino)-9H-purin-9-yl)cyclobutyl)-2-phenylacetamide] | 10% | 20% | 20% | 0/0/0% | 0/0/0% | 0/0/0% |
| COc1ccc(C(=O)N2CCC3(CC2)CC(N2CCC(c4ccc(Nc5ncnc6c5ncn6[C@H]5C[C@@H](NC(=O)Cc6ccccc6)C5)cc4)CC2)C3)cc1N1CCC(=O)NC1=O [Compound 286, N-((1s,3s)-3-(6-((4-(1-(7-(3-(2,4-dioxotetrahydropyrimidin-1(2H)-yl)-4-methoxybenzoyl)-7-azaspiro[3.5]nonan-2-yl)piperidin-4-yl)phenyl)amino)-9H-purin-9-yl)cyclobutyl)-2-phenylacetamide] | 40% | 60% | 70% | 40% | 30% | 30% |
| O=C1CC[C@H](N2C(=O)c3cccc(OCC(=O)N4CCC(CN5CCC(c6ccc(Nc7ncnc8c7ncn8[C@H]7C[C@@H](NC(=O)Cc8ccccc8)C7)cc6)CC5)CC4)c3C2=O)C(=O)N1 [Compound 287, N-((1s,3s)-3-(6-((4-(1-((1-(2-((2-(2,6-dioxopiperidin-3-yl)-1,3-dioxoisoindolin-4-yl)oxy)acetyl)piperidin-4-yl)methyl)piperidin-4-yl)phenyl)amino)-9H-purin-9-yl)cyclobutyl)-2-phenylacetamide] | 0/0/0% | 0/0/0% | 0/0/0% | 0/0/0% | 0/0/0% | 0/0/0% |
| O=C1CCC(N2C(=O)c3cccc(NCC(=O)N4CCC(CN5CCC(c6ccc(Nc7ncnc8c7ncn8[C@H]7C[C@@H](NC(=O)Cc8ccccc8)C7)cc6)CC5)CC4)c3C2=O)C(=O)N1 (stereo partly drawn) [Compound 288, N-((1s,3s)-3-(6-((4-(1-((1-((2-(2,6-dioxopiperidin-3-yl)-1,3-dioxoisoindolin-4-yl)glycyl)piperidin-4-yl)methyl)piperidin-4-yl)phenyl)amino)-9H-purin-9-yl)cyclobutyl)-2-phenylacetamide] | 10% | 20% | 20% | 0/0/0% | 0/0/0% | 0/0/0% |
| O=C1CC[C@H](N2C(=O)c3ccc(OCC(=O)N4CCC(CN5CCC(c6ccc(Nc7ncnc8c7ncn8C7CC(NC(=O)Cc8ccccc8)C7)cc6)CC5)CC4)cc3C2=O)C(=O)N1 (stereo partly drawn) [Compound 289, N-((1s,3s)-3-(6-((4-(1-((1-(2-((2-(2,6-dioxopiperidin-3-yl)-1,3-dioxoisoindolin-5-yl)oxy)acetyl)piperidin-4-yl)methyl)piperidin-4-yl)phenyl)amino)-9H-purin-9-yl)cyclobutyl)-2-phenylacetamide] | 40% | 60% | 70% | 30% | 0% | 0% |
| O=C1CC[C@H](N2C(=O)c3ccc(NCC(=O)N4CCC(CN5CCC(c6ccc(Nc7ncnc8c7ncn8C7CC(NC(=O)Cc8ccccc8)C7)cc6)CC5)CC4)cc3C2=O)C(=O)N1 (stereo partly drawn) [Compound 290, N-((1s,3s)-3-(6-((4-(1-((1-((2-(2,6-dioxopiperidin-3-yl)-1,3-dioxoisoindolin-5-yl)glycyl)piperidin-4-yl)methyl)piperidin-4-yl)phenyl)amino)-9H-purin-9-yl)cyclobutyl)-2-phenylacetamide] | 20% | 20% | 30% | 10% | 0% | 0% |
